As a reminder, the EC50 is the concentration that produces a half-maximal response.

The record followed here is PMC12406200, “Structural Basis of PPARγ-Mediated Transcriptional Repression by the Covalent Inverse Agonist FX-909” (Journal of Medicinal Chemistry, 2025).

SMILES strings stand for the structures.

The target in assay [1] is T1, full-length human PPARγ (isoform 2) (Homo sapiens, UniProt P37231).
T1 construct: full-length human PPARγ (isoform 2) expression plasmid; expressed in transfected cells; host or cells: HEK293T (ATCC #CRL-11268)
T1 sequence (P37231 1-505): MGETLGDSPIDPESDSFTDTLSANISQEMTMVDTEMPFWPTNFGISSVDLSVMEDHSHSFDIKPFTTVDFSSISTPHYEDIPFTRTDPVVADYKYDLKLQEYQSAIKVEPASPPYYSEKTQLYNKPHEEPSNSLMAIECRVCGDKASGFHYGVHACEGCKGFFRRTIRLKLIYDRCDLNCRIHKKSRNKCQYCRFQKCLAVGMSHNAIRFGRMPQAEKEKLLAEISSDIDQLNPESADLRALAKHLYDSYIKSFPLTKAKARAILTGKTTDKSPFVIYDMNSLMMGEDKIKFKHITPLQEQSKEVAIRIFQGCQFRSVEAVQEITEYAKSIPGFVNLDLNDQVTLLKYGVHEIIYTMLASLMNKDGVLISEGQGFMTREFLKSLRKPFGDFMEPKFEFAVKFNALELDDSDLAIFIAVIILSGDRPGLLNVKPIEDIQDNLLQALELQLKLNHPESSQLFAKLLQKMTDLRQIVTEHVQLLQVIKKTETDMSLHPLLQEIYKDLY
Description: Transcriptional reporter assay (3xPPRE-luciferase) in HEK293T cells transfected with full-length PPARγ. The assay is classed as cell-based. Conditions: for IC50: full-length PPARγ + 3xPPRE-luciferase, 18 h treatment, n = 4, three-parameter fit, read-out: cellular IC50 (decrease in PPARγ-mediated transcription). Here is the method: 1 Pharmacological PPARγ ligand set used in this study. (A) Chemical structures and pharmacological properties of the ligands. […] (B) Transcriptional reporter assay performed in HEK293T cells transfected with a full-length PPARγ expression plasmid and a 3xPPRE-luciferase reporter plasmid. Data were normalized to cells treated with DMSO control, represented as mean ± s.d.
After an 18 h incubation, cells were transferred to white 384-well cell culture plates (Thermo Fisher Scientific) at 10,000 cells/well in 20 μL total volume/well. After a 4 h incubation, cells were treated in quadruplicate with 20 μL of either vehicle control (1.5% DMSO in DMEM) or a 3-fold serial dilution of ligands (1 μM highest ligand concentration). After a final 18 h incubation, cells were harvested with 20 μL of Britelite Plus (PerkinElmer), and luminescence was measured on a BioTek Synergy Neo multimode plate reader. Data were plotted in GraphPad Prism as luminescence vs ligand concentration as mean ± s.d. (n = 4) and fit to a three-parameter sigmoidal dose–response curve equation.
On the technique in general: A reporter such as luciferase makes a cellular process visible.

Assay [2] concerns the target T2, PPARγ LBD / NCoR1 corepressor peptide (Homo sapiens, UniProt P37231).
T2 construct: residues 203–477 (isoform 1 numbering) with a TEV-cleavable N-terminal hexa-his-tag; made in house; host or cells: Escherichia coli BL21(DE3), pET46 plasmid
T2 sequence (P37231 203-477 isoform P37231-2): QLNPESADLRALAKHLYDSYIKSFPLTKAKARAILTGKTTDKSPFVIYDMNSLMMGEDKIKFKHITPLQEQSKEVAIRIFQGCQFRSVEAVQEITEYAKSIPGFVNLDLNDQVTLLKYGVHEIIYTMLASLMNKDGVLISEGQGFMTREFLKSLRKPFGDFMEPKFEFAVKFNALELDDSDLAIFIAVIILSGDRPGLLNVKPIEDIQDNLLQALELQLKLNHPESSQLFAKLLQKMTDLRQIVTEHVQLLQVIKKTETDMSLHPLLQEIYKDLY
Description: TR-FRET coregulator interaction assay, NCoR1 corepressor peptide. The assay is classed as biochemical. The note with it: for EC50: 4 nM 6xHis-PPARγ LBD, 400 nM FITC-NCoR1 peptide, 1 h at 25 °C, n = 3, read-out: NCoR1 TR-FRET EC50 (increase in NCoR1 peptide interaction). The source says:
(§1) We next characterized the ligand set using biochemical assays that report on ligand-dependent changes in the interaction between PPARγ LBD and FITC-labeled peptides derived from NR coregulator proteins that contribute to PPARγ-mediated transcription in cells, including the TRAP220/MED1 coactivator and NCoR1 corepressor. We used time-resolved fluorescence resonance energy transfer (TR-FRET) assays to determine relative ligand potency (or covalent reactivity) and efficacy (via increased or decreased TR-FRET ratio values). […] We performed fluorescence polarization (FP) assays to directly measure binding affinities between the PPARγ LBD and coregulator peptides.
(§2) 2 Biochemical coregulator profiling data. Time-resolved fluorescence resonance energy transfer (TR-FRET) coregulator interaction assay performed with (A) the NCoR1 corepressor peptide or (B) the TRAP220/MED1 coactivator peptide in the presence of the indicated ligands. Data represent mean ± s.e.m. […] Fluorescence polarization (FP) binding assay performed with (C) NCoR1 corepressor peptide or (D) TRAP220/MED1 coactivator peptide in the presence of the indicated ligands. Data represent mean ± s.e.m. […] (E) Pairwise correlation plots between PPARγ-mediated transcription (y-axis) and biochemical coregulator profiling data (x-axis). Spearman correlation coefficients (r p) and associated two-tailed p values are listed.
(§3) Time-resolved fluorescence resonance energy transfer (TR-FRET) coregulator peptide interaction assays were performed in low-volume black 384-well plates (Greiner) using a 23 μL final well volume. Each well contained 4 nM protein (WT or mutant 6xHis-PPARγ LBD), 1 nM LanthaScreen Elite Tb-anti-His Antibody (ThermoFisher #PV5895), and 400 nM FITC-labeled TRAP220/MED1 and NCoR1 peptide in a buffer containing 20 mM potassium phosphate (pH 7.4), 50 mM KCl, 5 mM TCEP, and 0.005% Tween 20. Ligand stocks were prepared via serial dilution in DMSO, added to wells in triplicate (10 μM highest final ligand concentration), and plates were read using BioTek Synergy Neo multimode plate reader after incubation for 1 h at 25 °C.
On the technique in general: In TR-FRET formats the signal depends on donor and acceptor labels being close together.

The target in assay [3] is T3, PPARγ LBD / TRAP220/MED1 coactivator peptide (Homo sapiens, UniProt P37231).
T3 construct: residues 203–477 (isoform 1 numbering) with a TEV-cleavable N-terminal hexa-his-tag; made in house; host or cells: Escherichia coli BL21(DE3), pET46 plasmid
T3 sequence (P37231 203-477 isoform P37231-2): T2 sequence (P37231 203-477 isoform P37231-2)
Description: TR-FRET coregulator interaction assay, TRAP220/MED1 coactivator peptide. It is filed as biochemical. Conditions: for IC50: 4 nM 6xHis-PPARγ LBD, 400 nM FITC-TRAP220/MED1 peptide, 1 h at 25 °C, n = 3, read-out: MED1 TR-FRET IC50 (decrease in TRAP220/MED1 peptide interaction).
Excerpt: as §1, §2, §3

With `O=C(Nc1ccccc1)c1cc([N+](=O)[O-])ccc1Cl` [GW9662], in assay [1] (3xPPRE-luciferase reporter), the “effect on PPARγ-mediated transcription (in words)” value is “no change in activity”. The EC50 in assay [2] worked out at 0.017 µM. In addition, in assay [2] (TR-FRET ratio), the “effect on NCoR1 corepressor peptide interaction, TR-FRET efficacy (in words)” value is listed as “relatively little change in efficacy”. Also, the “effect on TRAP220/MED1 coactivator peptide interaction, TR-FRET efficacy (in words)” value in assay [3] (TR-FRET ratio) is given as “relatively little change in efficacy”.

For the compound `N#Cc1ccc(NC(=O)c2cc([N+](=O)[O-])ccc2Cl)cn1` [SR33068], the values for the IC50 in assay [1] and in assay [3] were 0.00158 µM and 0.005 µM, respectively. Besides, in assay [2], the EC50 was 0.017 µM.

On to `CS(=O)(=O)c1ccc(C#N)cc1-c1cc(=O)c2c(F)cc(F)cc2[nH]1` [FX-909, 3-(5,7-difluoro-4-oxo-1,4-dihydroquinolin-2-yl)-4-(methylsulfonyl)benzonitrile], for which the IC50 in assay [1] was determined as 0.00131 µM; in assay [3], 0.016 µM. The EC50 in assay [2] is 0.033 µM.
